Reference: article PMC11520585 (BMC Neuroscience, 2024)

Key:
[1] = system: vanadium-induced neurotoxicity; details: vanadium-exposed mice; cited from earlier work
[2] = molecular target: GluN1/GluN2A subtype receptors; details: read-out: mean IC50, GluN1/GluN2A; cited from earlier work
C. elegans [3] = assay type: in vivo; details: ZA-II-05 1 mg/ml treated groups, 24 h
[4] = system: maximal electroshock seizures; details: 100 and 300 mg/kg (i.p.); cited from earlier work
µ-opioid receptors (MOR) = details: read-out: Ki, µ-opioid receptors (MOR); competitive radioligand binding; cited from earlier work
C. elegans [5] = details: in vivo
C. elegans [6] = details: in vivo; remark: listed apart in the source
[7] = system: organotypic hippocampal slice cultures; assay: organotypic hippocampal slice culture neuroprotection assay; assay type: cell-based, rat; details: ZA-II-05 100 µM, NMDA 10 µM insult, P < 0.05
Opioid receptors (KOR) = details: read-out: Ki, Opioid receptors (KOR); competitive radioligand binding; cited from earlier work
C. elegans [8] = assay type: in vivo; details: ZA-II-05 1 mg/ml treated groups, 24 h; remark: listed apart in the source
[9] = molecular target: GluN1/GluN2B subtype receptors; details: read-out: mean IC50, GluN1/GluN2B; cited from earlier work
Sigma2 receptor = details: read-out: Ki, Sigma2 receptor; competitive radioligand binding; cited from earlier work

Fc1ccc(C2(NCCCOC3CCCCO3)CC3CCC2C3)cc1 (stereo not drawn) [ZA-II-05, 2-[4-Fluorophenyl]-N-(3-[tetrahydro-2H-pyran-2-yloxy]propyl) bicyclo [2.2.1] heptan-2-amine]
protection against neuronal damage [1]: considerable protection against neuronal damage
IC50 [2]: 518 nM
nuclei in ventral nerve cord (DAPI) (C. elegans [3]): preserved the nucleus
activity in maximal electroshock seizure (MES) assessment [4]: activity
Ki (µ-opioid receptors (MOR)): 3040 nM
mitochondrial superoxide (MitoSOX fluorescence), effect on vanadium-induced ROS (C. elegans [5]): alleviated
growth pattern (body length, body wall) (C. elegans [6]): reversed this effect
neuroprotection (propidium iodide fluorescence intensity vs NMDA group) [7]: significant neuroprotective effect
Ki (Opioid receptors (KOR)): 361 nM
mitochondrial density (fluorescence intensity) (C. elegans [8]): dense presence of mitochondria
IC50 [9]: 430 nM
Ki (Sigma2 receptor): 5.5 nM
